± gives the expanded uncertainty stated by the source.
Assay: Molar enthalpy of transition or fusion
Conditions: Crystal; DSC

Molar enthalpy of transition or fusion: 3.92 ± 0.21 kcal/mol
SMILES: Nc1ccc(N)c([N+](=O)[O-])c1 [2-nitro-1,4-benzenediamine]

Source: the NIST ThermoML archive (doi:10.1016/j.jct.2017.01.006)
